Assay results published in ChEMBL document CHEMBL1177776, “Novel coumarin derivatives as potential antidyslipidemic agents” (2010).

Tests used:
Assay type in all cases: functional
Rattus norvegicus [1] = experiment: Antidyslipidemic activity against triton-induced hyperlipidemia in Charles Foster rat assessed as reduction in phospholipid level at 100 mg/kg, po after 18 hrs by spectrophotometry relative to control; parameters: scale not given: the % may be the effect or the level left
Rattus norvegicus [2] = experiment: Antidyslipidemic activity against triton-induced hyperlipidemia in Charles Foster rat assessed as reduction in triglyceride level at 100 mg/kg, po after 18 hrs by spectrophotometry relative to control; parameters: scale not given: the % may be the effect or the level left
Rattus norvegicus [3] = experiment: Antidyslipidemic activity against triton-induced hyperlipidemia in Charles Foster rat assessed as reduction in total cholesterol level at 100 mg/kg, po after 18 hrs by spectrophotometry relative to control; parameters: scale not given: the % may be the effect or the level left
[4] = Antioxidant activity assessed as inhibition non-enzymatic reactants generated hydroxyl radical production at 200 ug/ml by spectrophotometry
[5] = Antioxidant activity assessed as inhibition non-enzymatic reactants generated superoxide anion at 200 ug/ml by spectrophotometry
[6] = Antioxidant activity assessed as inhibition lipid peroxidation at 200 ug/ml by spectrophotometry
[7] = Antioxidant activity assessed as inhibition non-enzymatic reactants generated hydroxyl radical production at 100 ug/ml by spectrophotometry
[8] = Antioxidant activity assessed as inhibition non-enzymatic reactants generated superoxide anion at 20 ug/ml by spectrophotometry

| Compound | Activity (Rattus norvegicus [1]) | Activity (Rattus norvegicus [2]) | Activity (Rattus norvegicus [3]) | inhibition [4] | inhibition [5] | inhibition [6] | inhibition [7] | inhibition [8] |
| --- | --- | --- | --- | --- | --- | --- | --- | --- |
| Cc1ccc(C)c(OCCCC(C)(C)C(=O)O)c1 [GEMFIBROZIL] | 38% | 35% | 34% | – | – | – | – | – |
| Cc1cc(C=O)c(O)c2ccccc12 | 25% | 23% | 24% | 41% | 27% | 41% | – | – |
| Cc1c(C)c2c(c(C)c1O)CC[C@@](C)(CCC[C@H](C)CCC[C@H](C)CCCC(C)C)O2 | – | – | – | – | – | – | 47% | – |
| Oc1ncnc2[nH]ncc12 | – | – | – | – | – | – | – | 80% |
| OC[C@@H](O)[C@@H](O)[C@H](O)[C@H](O)CO | – | – | – | – | – | – | 52% | – |
| Cc1cc2cc(Cl)c(=O)oc2c2ccccc12 | 26% | 26% | 27% | 49% | 32% | 38% | – | – |
